Measurements: patent US20190054194A1, “System and Method For Evaluation of Subjects Using Magnetic Resonance Imaging and Oxygen-17” (Case Western Reserve University, priority 2017, published 2019)

Experiment: dynamic golden-angle 17O-MRI of H2^17O uptake and washout in brain after intravenous bolus injection (control and glioblastoma mice)
Assay type: in vivo
Excerpt: In one configuration, tumor and brain may be differentiated with the present methods, such as to assess the presence of a glioblastoma. […] For example, the method may allow for differentiation between subjects with a moderate tumor volume (<30%, GBM-M) and those with a large tumor volume (>30%, GBM-L). Once image reconstruction has been completed, ^17O images may be coregistered with the T2-weighted ^1H images. Tumor areas may show higher signal intensity in T2-weighted ^1H images due to having a longer T2 than normal brain tissue. Appropriate regions of interest (ROIs) that encompass the tumor and normal brain tissue may be drawn manually from T2-weighted ^1H images, or automatic segmentation routines may be used to define the ROIs. Total tumor and brain volumes may be calculated by adding the tumor and brain areas in all of the image slices. The percentage of tumor volume may then be calculated as the tumor volume divided by total brain volume.
^17O signal may be normalized by the corresponding natural abundance ^17O signal acquired before H2^17O injection or administration. Peak H2^17O uptake may be identified as the maximal signal intensity following H2^17O administration. A normalized time course of the ^17O signal from peak uptake to the end of the measurement may be fit to a monoexponential function in a pixel-wise fashion to generate the maps of peak and steady-state H2^17O uptake, as well as its washout rate. Mean values for each ROI may be calculated for each map. In tissue with no obvious washout phase or even continued accumulation of H2^17O after the injection, washout rate may be set to zero, while peak and steady-state H2^17O uptake may be calculated as the normalized ^17O signals immediately after H2^17O injection and at the end of measurement, respectively.

[1] = GBM-L mice (large tumor volume >30%)

Structure (SMILES): [17OH2] [H2^17O, ^17O-labeled water]
- H2^17O uptake in normal brain tissue [1]: significantly reduced H2^17O uptake
- H2^17O washout in normal brain tissue [1]: prolonged washout
- H2^17O washout in tumors [1]: no obvious washout phase, or even continuous accumulation of H2^17O after injection
- H2^17O uptake in tumors (GBM-M mice (moderate tumor volume <30%)): reduced H2^17O uptake
- H2^17O uptake and washout (17O signal kinetics) in brain (control mice, after H2^17O injection): rapid uptake and washout
